Laboratory results taken from patent US9492444B2, “Extruded extended release abuse deterrent pill” (Pharmaceutical Manufacturing Research Services, Inc., priority 2013, dated 2016).

Legend:
[1] = General solubility of exemplary components; type: physicochemical; settings: 200 proof ethanol, filtered through 0.22 micrometer PTFE filter
From the text: The following table lists the relative solubility of exemplary components of a formulation. A number of different dyes are listed along with their solubility information taken from the various literature sources and tested experimentally (200 proof ethanol and filtered through a 0.22 micrometer PTFE filter).

[2] = cited from earlier work

CCN(Cc1cccc(S(=O)(=O)[O-])c1)c1ccc(C(=C2C=CC(=[N+](CC)Cc3cccc(S(=O)(=O)[O-])c3)C=C2)c2ccccc2S(=O)(=O)[O-])cc1.[Na+].[Na+] [Blue #1]
Yes: Alcohol Solubility (tested) [1] | Alcohol Solubility (Literature) [2] | Water Solubility [2]

COc1cc(S(=O)(=O)[O-])c(C)cc1N=Nc1c(O)ccc2cc(S(=O)(=O)[O-])ccc12.[Na+].[Na+] [Red #40]
Yes: Alcohol Solubility (tested) [1] | Alcohol Solubility (Literature) [2] | Water Solubility [2]

O=C([O-])C1=NN(c2ccc(S(=O)(=O)[O-])cc2)C(=O)C1N=Nc1ccc(S(=O)(=O)[O-])cc1.[Na+].[Na+].[Na+] (stereo not drawn) [Yellow #5]
Yes: Alcohol Solubility (tested) [1] | Alcohol Solubility (Literature) [2] | Water Solubility [2]

O=C1/C(=C2\Nc3ccc(S(=O)(=O)[O-])cc3C2=O)Nc2ccc(S(=O)(=O)[O-])cc21.[Na+].[Na+] [Blue #2]
Yes: Alcohol Solubility (tested) [1] | Alcohol Solubility (Literature) [2] | Water Solubility [2]
